How the values were obtained:
pancreatic IL-22 = assay: Pancreatic IL-22 production in mice (flow cytometry of pancreatic leukocytes, ELISA); format: in vivo, Balb/c mice; settings: day 3, vs vehicle
Description: (§1) Mice were given PBS or recombinant IL-22 (200 ng/mouse, 1 ng/μl, Miltenyi Biotech) intra-peritoneally at 24 h after onset of CDE-diet-induced acute pancreatitis. For experiments involving anti-IL-22 mAb, mice were treated with 1 μg of either anti-IL-22 or isotype control mAb (R&D Systems) at indicated times. CH-223191 (100 μg/mouse, 0.5 μg/μl, Sigma-Aldrich) was dissolved in DMSO and Biliverdin hydrochloride (35 mg/kg, Frontier Scientific) in 20 mM NaOH adjusted to pH of 7.0. CH-223191, Biliverdin hydrochloride, or vehicle control were used to treat normal mice or mice undergoing AP at indicated times.
Mouse pancreata were isolated and frozen immediately in liquid nitrogen. Total tissue and primary pancreatic acinar cells, isolated as described below, were homogenized in RIPA buffer containing protein inhibitors and analyzed by western blot as described previously (Nakamichi et al., 2005; Xue et al., 2010). […] Supernatant from pancreas homogenate was analyzed using ELISA kit for mouse IL-22 (Biolegend). […]
For surface staining, cells were stained with the following antibodies (Biolegend): AF700 or FITC CD45.2, PE/Cy7-CD3, PE/Cy7-CD19, APC/Cy7-CD4, FITC-CD90, Percp/Cy5.5-CD11b, APC-Sca-1, PB-CD11c, APC/Cy7-NK1.1 and APC-NKp46. […] Flow cytometry data collection was performed on Fortessa LSRII (BD Biosciences) and analyzed using FlowJo software (Tree Star, Inc.).

[1] = system: CDE-induced acute pancreatitis; assay: CDE-diet-induced acute pancreatitis model; format: in vivo, Balb/c mice
Description: (§2) Mice including Balb/c, C57B6/J and AhR^d were purchased from Jackson laboratory and housed under pathogen-free conditions. All animal experiments were approved by Stanford University institutional animal care and use committees. Acute pancreatitis models. For caerulein-induced pancreatitis, age and sex matched mice were fasted for 12-16 hours. Mice then received 7 hourly intra-peritoneal injections of saline (control) or 50 μg/kg caerulein in saline and followed up to 12 h or indicated times. For the choline-deficient diet supplemented with DL-ethionine (CDE-diet) model of pancreatitis, young female mice (16-20 g) were fasted then fed a choline-deficient diet (Harlan Teklad) supplemented with 0.5% DL-ethionine (Sigma-Aldrich) or normal chow (control group) (Habtezion et al. (2011), Nakamichi et al., 2005).
as §1
Mice were euthanized by CO2 inhalation. Pancreata and other tissues were rapidly removed. Pancreas and lung pieces were immediately fixed in 10% formalin and embedded in paraffin. Fixed tissues were sectioned and stained with hematoxylin and eosin (H&E; performed by Histo-Tec Laboratory). The severity of pancreatitis and lung injury were scored blindly as described previously (Habtezion et al. (2011), Nakamichi et al., 2005). Other pancreas pieces were frozen in Tissue-Tek OCT compound and sectioned for fluorescence staining Immunofluorescence staining for p-STAT3 (Cell Signaling) and DAPI (nuclei) was performed according to manufacturer's guidelines. TUNEL assay was performed according to the manufacturer's instructions (ApopTag® Red In Situ Apoptosis Detection Kit, Millipore).
Blood was collected by intracardiac puncture, and serum was isolated for subsequent lipase level determination by diagnostic laboratory at Stanford University. Lung tissues were collected and MPO assay performed according to manufacture's guidelines (Biovision).
(§3) Mouse pancreata were isolated and frozen immediately in liquid nitrogen. Total tissue and primary pancreatic acinar cells, isolated as described below, were homogenized in RIPA buffer containing protein inhibitors and analyzed by western blot as described previously (Nakamichi et al., 2005; Xue et al., 2010). IL-22RA1 and cleaved caspase-3 antibodies were purchased from Abcam and Cell Signaling, respectively. Supernatant from pancreas homogenate was analyzed using ELISA kit for mouse IL-22 (Biolegend).

[2] = system: caerulein-induced acute pancreatitis; assay: Caerulein-induced acute pancreatitis in AhR non-responsive (AhR^d) mice; format: in vivo, AhR^d mice (C57BL/6 background); settings: rIL-22 single dose 200 ng/mouse, vs vehicle control
Description: as §2
Mice were euthanized by CO2 inhalation. Pancreata and other tissues were rapidly removed. Pancreas and lung pieces were immediately fixed in 10% formalin and embedded in paraffin. […] The severity of pancreatitis and lung injury were scored blindly as described previously (Habtezion et al. (2011), Nakamichi et al., 2005). Other pancreas pieces were frozen in Tissue-Tek OCT compound and sectioned for fluorescence staining Immunofluorescence staining for p-STAT3 (Cell Signaling) and DAPI (nuclei) was performed according to manufacturer's guidelines. […]

[3] = system: primary pancreatic acinar cells; assay: Spontaneous apoptosis of primary pancreatic acinar cells in vitro (cleaved caspase-3 western blot); format: cell-based, mice; settings: rIL-22 for 2 h or 4 h in vitro; vs PBS
Description: as §3
(§4) Mice were sacrificed and pancreata removed carefully by trimming fat and mesentery. Dispersed pancreatic acinar cells were isolated using a collagenase digestion method described previously (Menozzi et al. 1990). Isolated primary pancreatic acinar cells were treated in vitro with either rIL-22 or vehicle control (PBS) for up to 4 hours following isolation. Pancreatic leukocytes were prepared with minor modifications of the method developed by Hawkins (Hawkins et al., 1996). Briefly, 3-4 pancreata were pooled together and minced with scissors, then washed twice with buffer A (HBSS+10% FCS). The tissue was resuspended in buffer A containing 2 mg/ml collagenase type IV (Sigma-Aldrich) and incubated in a shaker at 37° C. for 15 min. […]

STAT3 = STAT3 phosphorylation in tissues after systemic rIL-22 (western blot, immunofluorescence); format: in vivo, Balb/c mice; settings: rIL-22 200 ng/mouse systemically; 1 h; compared to other tissues
Description: as §1
Mice were euthanized by CO2 inhalation. Pancreata and other tissues were rapidly removed. […] The severity of pancreatitis and lung injury were scored blindly as described previously (Habtezion et al. (2011), Nakamichi et al., 2005). Other pancreas pieces were frozen in Tissue-Tek OCT compound and sectioned for fluorescence staining Immunofluorescence staining for p-STAT3 (Cell Signaling) and DAPI (nuclei) was performed according to manufacturer's guidelines. […]
Mouse pancreata were isolated and frozen immediately in liquid nitrogen. Total tissue and primary pancreatic acinar cells, isolated as described below, were homogenized in RIPA buffer containing protein inhibitors and analyzed by western blot as described previously (Nakamichi et al., 2005; Xue et al., 2010). […]

[4] = system: RegIII genes, SAA3, β-defensin2, IL-22RA1 in pancreas; assay: Quantitative PCR of pancreas mRNA 24 h after rIL-22; format: in vivo, Balb/c mice; settings: 200 ng/mouse i.p., vs PBS
Description: Pancreatic tissue was lysed with Trizol reagent (Invitrogen) for total RNA preparation according to manufacturer's instructions. Briefly, cDNA was generated using GoScript reverse transcription system (Promega). Quantitative PCR was performed with an ABI-7900 Sequence Detection System (Applied Biosystems) using designed specific TaqMan probes and primers as follows: RegIIIβ (Forward, 5′-[…]-3′; Reverse, 5′-[…]-3′; Probe, 5′-[…]-3′); RegIIIγ (Forward, 5′-[…]-3′; Reverse, 5′-TGGGTTCATAGCCCAGTGT-3′; Probe, 5′-[…]-3′); β-defensin2 (Forward, 5′-[…]-3′; Reverse, 5′-[…]-3′; Probe, 5′-[…]-3′); SAA3 (Forward, 5′-[…]-3′; Reverse, 5′-[…]-3′; Probe, 5′-[…]-3′); IL-22RA1 (Forward, 5′-[…]-3′; Reverse, 5′-[…]-3′; Probe, 5′-[…]-3′).

pancreatic acinar cells = assay: pSTAT3 induction in isolated primary pancreatic acinar cells (western blot); format: cell-based, Balb/c mice; settings: 10 ng/ml for 0-30 min; 0-100 ng/ml for 15 min
Description: as §3, §4

[5] = 200 ng/mouse 24 h after CDE feeding, 60 h, vs PBS

`Cc1ccccc1N=Nc1ccc(NC(=O)c2ccnn2C)c(C)c1` [CH-223191, 2-methyl-2H-pyrazole-3-carboxylic acid (2-methyl-4-o tolylazo-phenyl)-amide, reference compound] was tested, and the “Frequency of IL-22-expressing leukocytes in the pancreas” value (pancreatic IL-22; 100 μg/mouse on two consecutive days, flow cytometry and ELISA) was “markedly decreased”, the Mortality ([1]; pretreated before CDE feeding, by day 3, relative to control treated mice) was “increased mortality” and the “Severity of acute pancreatitis (serum lipase, H&E, histologic score)” value ([1]; pretreated daily for two days before CDE feeding, analyzed at day 2, vs vehicle) was “considerably more severe acute pancreatitis”.
For `C=CC1=C(C)/C(=C/C2=NC(=C\c3[nH]c(/C=C4\NC(=O)C(C)=C4C=C)c(C)c3CCC(=O)O)/C(CCC(=O)O)=C2C)NC1=O` [biliverdin, reference compound], the “Pancreatic IL-22” value (pancreatic IL-22; biliverdin 35 mg/kg on day 1 and 2, ELISA and flow cytometry) was “significant increase” and the “Protection against acute pancreatitis (serum lipase, histologic assessment)” value ([1]; single dose 24 h after CDE-diet feeding, sacrificed at 60 h, vs vehicle) was “protected against acute pancreatitis”.
With “rIL-22: recombinant IL-22 (Miltenyi Biotech), cytokine of the IL-10 family” the “Pancreatic injury (H&E)” value [2] was “decrease”, the Serum lipase levels [2] was “decrease” and the “Spontaneous apoptosis of acinar cells (cleaved caspase-3)” value [3] was “delayed spontaneous apoptosis”. For the same molecule, the “Blinded lung histology score” value ([1]; 200 ng/mouse 24 h after CDE feeding, 60 h, mean±SEM, P=0.028 vs control) was 1.6±0.24, the “Lung myeloperoxidase (MPO) levels” value [1, 5] was “significantly reduced” and the “Morphologic evidence of lung injury” value [1, 5] was “significantly reduced”. The “Pancreatitis severity, histologic examination and blinded scoring of pancreata” value ([1]; 200 ng/mouse 24 h after CDE feeding, 60 h, vs vehicle) was “less severe pancreatitis”, the Serum lipase levels ([1]; 200 ng/mouse i.p. 24 h after CDE feeding, harvest at 60 h, vs PBS) was “significantly lower” and the “Pancreatic IL-22 level by ELISA after systemic administration” value ([1]; 60 h following CDE feeding) was “Effective reconstitution”. For the same molecule, the Mortality ([1]; rIL-22 24 h after CDE feeding, followed to 72 h, vs PBS) was “lower mortality”, the “Apoptosis in pancreas (TUNEL assay)” value ([1]; rIL-22 24 h after CDE feeding, pancreas at 60 h) was “significantly reduced apoptosis” and the “STAT3 activation (p-STAT3) in the pancreas” value (STAT3) was “Significant STAT3 activation”. The “IL-22RA1 mRNA expression in pancreas” value [4] was “no significant induction”, the “RegIIIβ (PAP1) mRNA expression in pancreas” value [4] was “stimulated the expression” and the “RegIIIγ (PAP3) mRNA expression in pancreas” value [4] was “stimulated the expression”. The “SAA3 mRNA expression in pancreas” value [4] was “no significant induction”, the “β-defensin2 mRNA expression in pancreas” value [4] was “no significant induction” and the “pSTAT3 induction in pancreatic acinar cells” value (pancreatic acinar cells) was “induced by rIL-22 in pancreatic acinar cells in a time and dose dependent manner”.

Reference: patent US20140112882A1, “Methods to treat pancreatic inflammation and associated lung injury through regulation of pancreatic interleukin-22 expression” (The Board of Trustees of the Leland Stanford Junior …, priority 2012, published 2014)
